How the values were obtained:
[1] = literature value; cited from earlier work
flavodoxin = conditions: literature value for a flavodoxin [23]; read-out: dissociation constant; cited from earlier work
[2] = target: T1, Arabidopsis thaliana phototropin 2 (AtPhot2) LOV2 domain (residues 387-492) variant AtminiSOG0.2 (miniSOG0.2, miniSOG), 1387M/N390S/S394T/S409G/C426G/F470L, SEQ ID NO: 2 (Arabidopsis thaliana, UniProt P93025, C426G/F470L/N390S/S394T/S409G); assay: Equilibrium dialysis of miniSOG (FMN dissociation constant); format: binding
T1 construct: can be engineered into a small (106-residue) SOG; made in house
Description: Mass spectrometry confirmed that the flavin cofactor is FMN. Equilibrium dialysis reported a dissociation constant of 170±8 pM (Table 2), similar to values for some flavoproteins (e.g., 260±60 pM for a flavodoxin [23]) and consistent with the crystal structures of LOV domains, which show FMN deeply buried inside the protein core.

[3] = fluorescence quantum yield; format: physicochemical
Experimental: (§1) FIG. 3. (A) Absorbance spectrum of miniSOG0.2 determined between 400 nm and 500 nm (B) Normalized absorbance (left) and emission (right) spectra of miniSOG0.2. The fluorescence quantum yield of miniSOG0.2 was determined to be 0.30. (C) ADPA degradation by miniSOG0.2. ADPA was mixed with miniSOG0.2 in PBS and illuminated at 480/30 nm. ADPA emission spectra taken after indicated illumination times. (D) Degradation of ADPA by illumination of miniSOG0.2 (▴) or free FMN (♦). Flavin mononucleotide (FMN) was used as the standard for the quantum yield measurement. The data represents one typical measurement. The averaged absorbance intensity of FMN and miniSOG0.2 in this measurement is 0.064 and 0.070 respectively in arbitrary units. Singlet-oxygen-generation quantum yield of miniSOG0.2 was determined to be 0.47±0.05 (from three independent measurements).
(§2) […] was synthesized by overlap extension PCR [48]. Genetic libraries were constructed by saturation and random mutagenesis and DNA shuffling. Mutants were fused to IFP1.4 by overlap extension PCR and cloned into a modified pBAD vector containing the heme oxygenase-1 gene from cyanobacteria. Libraries were expressed in E. coli strain TOP10 and screened by imaging the agar plates with colonies in the IFP channel before and after blue light illumination. Protein purification and spectroscopic characterization experiments were done as described.

HEK293 cells [4] = assay: growth rate of HEK293 cells overexpressing the protein, no light; format: cell-based; conditions: for Cell number: HEK293 cells; for toxicity in the absence of light: overexpression in cells, no illumination
Description: (§3) Feedback pathways involving enzymes such as riboflavin kinase (EC 2.7.1.26) and FAD (flavin adenine dinucleotide) diphosphatase (EC 3.6.1.18) probably regulate intracellular FMN to titrate endogenous flavoproteins and miniSOG [25]. Riboflavin kinase phosphorylates riboflavin into FMN, while FAD diphosphatase catalyzes the production of FMN from FAD.
DNA encoding miniSOG with codons optimized for mammals was synthesized by overlap extension PCR [48]. MiniSOG fusions were cloned into pcDNA3.1 vector. HEK293 and HeLa cells were transfected with miniSOG or chimera cDNAs using Fugene, then imaged 24-48 h later. Cultured cortical neurons were transfected by Amaxa electroporation (Lonza AG, Germany) and imaged 1-2 wk later.

HEK293 cells [5] = assay: FMN content of HEK293 cells after overexpression; format: cell-based; conditions: overexpression in HEK293 cells
Description: as §3

[6] = absorbance spectrum, extinction coefficients; format: physicochemical
Experimental: (§4) To increase the brightness of the C426G mutant, we also performed saturation mutagenesis of other residues surrounding the chromophore binding site. […] The ^1O2 quantum yield of miniSOG0.2 (0.47±0.05) was measured using anthracene-9,10-dipropionic acid (ADPA) as a ^1O2 sensor (FIG. 1E). Free FMN was used as the standard for the measurement of ^1O2 generation (quantum yield 0.51).
as §2

[7] = 1O2 quantum yield measured with ADPA as 1O2 sensor, FMN as standard; format: physicochemical; conditions: for 1O2 (singlet oxygen generation) quantum yield: ADPA sensor in PBS, illuminated at 480/30 nm, FMN standard
Experimental: as §1, §4

Compound: CC1=NC(=Cc2ccc(O)cc2)C(=O)N1C [naked GFP chromophore]
- 1O2 quantum yield [1]: 0.004

Compound: O=c1ccc2nc3ccc(O)c([As]4SCCS4)c3oc-2c1[As]1SCCS1 [ReAsH]
- 1O2 quantum yield [1]: 0.024

Compound: Cc1cc2nc3c(=O)[nH]c(=O)nc-3n(C[C@H](O)[C@H](O)[C@H](O)COP(=O)(O)O)c2cc1C [Free FMN, flavin mononucleotide]
- 1O2 quantum yield [1]: 0.51

Compound: Cc1cc2nc3c(=O)[nH]c(=O)nc-3n(C[C@H](O)[C@H](O)[C@H](O)COP(=O)(O)O)c2cc1C [FMN, flavin mononucleotide]
- Kd (flavodoxin): 260 ± 60 pM
- Kd ([2]; [apo] * [FMN]/[holo], equilibrium dialysis, dialysis time 24 hrs): 124 ± 5.7 pM
- Kd ([2]; [apo] * [FMN]/[holo], equilibrium dialysis, dialysis time 48 hrs): 174 ± 5.3 pM
- Kd ([2]; [apo] * [FMN]/[holo], equilibrium dialysis, dialysis time 72 hrs): 170 ± 8.4 pM
- Kd ([2]; dissociation constant (binds endogenous FMN very tightly), summary statement): ~100 pM
- Kd ([2]; dissociation constant, equilibrium dialysis, FMN cofactor): 170 ± 8 pM

Compound: AtminiSOG0.2: 106-residue mutant of Arabidopsis thaliana phototropin 2 residues 387-492, 1387M/N390S/S394T/S409G/C426G/F470L, SEQ ID NO:2, binds FMN
- fluorescence quantum yield ([3]; listed as AtminiSOG): 0.30
- fluorescence quantum yield ([3]; listed as miniSOG): 0.37
- fluorescence quantum yield ([3]; listed as miniSOG0.2): 0.30
- Cell number (HEK293 cells [4]; Day 0, transfection efficiency >90%): 200 10^3
- Cell number (HEK293 cells [4]; Day 1, transfection efficiency >90%): 390 10^3
- Cell number (HEK293 cells [4]; Day 2, transfection efficiency >90%): 940 10^3
- toxicity in the absence of light (HEK293 cells [4]): no obvious toxicity
- toxicity in the absence of light (HEK293 cells [4]; listed as AtminiSOG): without any obvious toxicity
- increase of FMN content (HEK293 cells [5]): ~3 fold
- extinction coefficient ([6]; at 448 nm): (16.7±0.7)×10^3 M^−1cm^−1
- extinction coefficient ([6]; at 448 nm, listed as AtminiSOG): 16,700 M^−1cm^−1
- extinction coefficient ([6]; at 473 nm): (13.6±0.5)×10^3 M^−1cm^−1
- extinction coefficient ([6]; at 473 nm, listed as AtminiSOG): 13,600 M^−1cm^−1
- 1O2 quantum efficiency relative to ReAsH on a tetracysteine motif [7]: about 20 times
- 1O2 (singlet oxygen generation) quantum yield ([7]; listed as AtminiSOG): 0.47
- 1O2 (singlet oxygen generation) quantum yield ([7]; listed as miniSOG0.2): 0.47±0.05

Reference: patent US9279769B2, “Proteins that efficiently generate singlet oxygen” (The Regents of the University of California, priority 2010, dated 2016)
